In US10968203B2, “Pyrimidinyl-pyridyloxy-naphthyl compounds and methods of treating IRE1-related diseases and disorders” (Genentech, Inc., priority 2017, dated 2021):
Structures can show the parent of a compound that is named as a salt.

Tested on: XBP1s-luc 293 LUC
Assay: cellular PD assay, XBP1s-LUC reporter (Example 903)
Type: cell-based
Conditions: Table 1; read-out: XBP1s-luc 293 LUC (IC50)
Procedure, shortened: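 A luciferase fusion, in frame and expressed only when the XBP1 transcript is spliced, served as the readout of cellular IRE1α activity in an XBP1-Luc reporter line.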

Row | Compound | IC50 [nM]
1 | Cc1nc(CNc2cccc3c(Oc4ncccc4-c4ccnc(N[C@H]5CCCNC5)n4)c(C)ccc23)no1 [Example 320, 4-[2-[[2-Methyl-5-[(5-methyl-1,2,4-oxadiazol-3-yl)methylamino]-1-naphthyl]oxy]-3-pyridyl]-N-[(3S)-3-piperidyl]pyrimidin-2-amine] | 740
2 | Cc1ccc2c(NC[C@H](O)C(F)(F)F)cccc2c1Oc1ncccc1-c1ccnc(N[C@@H]2CNC[C@H](C)C2)n1 [Example 321, (S)-1,1,1-Trifluoro-3-((6-methyl-5-((3-(2-(((3S,5R)-5-methylpiperidin-3-yl)amino)pyrimidin-4-yl)pyridin-2-yl)oxy)naphthalen-1-yl)amino)propan-2-ol] | 7.36
3 | Cc1nc(CNc2cccc3c(Oc4ncccc4-c4ccnc(N[C@@H]5CNC[C@H](C)C5)n4)c(C)ccc23)cs1 [Example 323, 4-(2-((2-Methyl-5-(((2-methylthiazol-4-yl)methyl)amino)naphthalen-1-yl)oxy)pyridin-3-yl)-N-((3S,5R)-5-methylpiperidin-3-yl)pyrimidin-2-amine] | 88.9
4 | Cc1ccc2c(NS(=O)(=O)N(C)C)c(F)ccc2c1Oc1ncccc1-c1ccnc(N[C@H]2CCCNC2)n1 [Example 324, 4-[2-[[5-(Dimethylsulfamoylamino)-6-fluoro-2-methyl-1-naphthyl]oxy]-3-pyridyl]-2-[[(3S)-3-piperidyl]amino]pyrimidine] | 45.5
5 | Cc1ccc2c(NS(=O)(=O)N(C)C)c(F)ccc2c1Oc1ncccc1-c1ccnc(N[C@@H]2CNC[C@H](C)C2)n1 [Example 325, 4-[2-[[5-(Dimethylsulfamoylamino)-6-fluoro-2-methyl-1-naphthyl]oxy]-3-pyridyl]-2-[[(3S,5R)-5-methyl-3-piperidyl]amino]pyrimidine] | 35
6 | CO[C@@H](CNc1cccc2c(Oc3ncccc3-c3ccnc(N[C@H]4CCCNC4)n3)c(C)ccc12)C(F)(F)F [Example 326, 4-(2-((2-Methyl-5-(((S)-3,3,3-trifluoro-2-methoxypropyl)amino)naphthalen-1-yl)oxy)pyridin-3-yl)-N—((S)-piperidin-3-yl)pyrimidin-2-amine] | 28.4
7 | Cc1ccc2c(NCCC#N)cccc2c1Oc1ncccc1-c1ccnc(N[C@H]2CCCNC2)n1 [Example 329, (S)-3-((6-Methyl-5-((3-(2-(piperidin-3-ylamino)pyrimidin-4-yl)pyridin-2-yl)oxy)naphthalen-1-yl)amino)propanenitrile] | 123
8 | Cc1ccc2c(NCc3ccn(C)n3)cccc2c1Oc1ncccc1-c1ccnc(N[C@@H]2CNC[C@H](C)C2)n1 [Example 330, 4-(2-((2-Methyl-5-(((1-methyl-1H-pyrazol-3-yl)methyl)amino)naphthalen-1-yl)oxy)pyridin-3-yl)-N-((3S,5R)-5-methylpiperidin-3-yl)pyrimidin-2-amine] | 197
9 | Cc1ccc2c(N3CCCC3=O)c(F)ccc2c1Oc1ncccc1-c1ccnc(N[C@H]2CCCNC2)n1 [Example 335, (S)-1-(2-Fluoro-6-methyl-5-((3-(2-(piperidin-3-ylamino)pyrimidin-4-yl)pyridin-2-yl)oxy)naphthalen-1-yl)pyrrolidin-2-one] | 384
10 | CCCS(=O)(=O)Nc1cccc2c(Oc3ncc(Br)cc3-c3ccnc(N[C@H]4CCCNC4)n3)c(C)ccc12 [Example 336, (S)-N-(5-((5-Bromo-3-(2-(piperidin-3-ylamino)pyrimidin-4-yl)pyridin-2-yl)oxy)-6-methylnaphthalen-1-yl)propane-1-sulfonamide] | 540
11 | Cc1ccc2c(NC(=O)C3CC3)cccc2c1Oc1ncccc1-c1ccnc(N[C@H]2CCCNC2)n1 [Example 337, (S)—N-(6-Methyl-5-((3-(2-(piperidin-3-ylamino)pyrimidin-4-yl)pyridin-2-yl)oxy)naphthalen-1-yl)cyclopropanecarboxamide hydrochloride] | 84.2
12 | Cc1ccc2c(NC(=O)C(Cl)Cl)cccc2c1Oc1ncccc1-c1ccnc(N[C@H]2CCCNC2)n1 [Example 338, (S)-2,2-Dichloro-N-(6-methyl-5-(3-(2-(piperidin-3-ylamino)pyrimidin-4-yl)pyridin-2-yloxy)naphthalen-1-yl)acetamide] | 161
13 | Cc1ccc2c(NCCCC(F)(F)F)cccc2c1Oc1ncccc1-c1ccnc(N[C@H]2CCCNC2)n1 [Example 344, (S)-4-(2-((2-Methyl-5-((4,4,4-trifluorobutyl)amino)naphthalen-1-yl)oxy)pyridin-3-yl)-N-(piperidin-3-yl)pyrimidin-2-amine] | 350
14 | CCc1nc(CNc2cccc3c(Oc4ncccc4-c4ccnc(N[C@H]5CCCNC5)n4)c(C)ccc23)cs1 [Example 345, (S)-4-(2-((5-(((2-Ethylthiazol-4-yl)methyl)amino)-2-methylnaphthalen-1-yl)oxy)pyridin-3-yl)-N-(piperidin-3-yl)pyrimidin-2-amine] | 171
15 | Cc1ccc2c(NCc3ncsc3C)cccc2c1Oc1ncccc1-c1ccnc(N[C@H]2CCCNC2)n1 [Example 346, (S)-4-(2-((2-Methyl-5-(((5-methylthiazol-4-yl)methyl)amino)naphthalen-1-yl)oxy)pyridin-3-yl)-N-(piperidin-3-yl)pyrimidin-2-amine] | 136
16 | Cc1ccc2c(NCCC(C)(C)C#N)cccc2c1Oc1ncccc1-c1ccnc(N[C@H]2CCCNC2)n1 [Example 347, (S)-2,2-Dimethyl-4-((6-methyl-5-((3-(2-(piperidin-3-ylamino)pyrimidin-4-yl)pyridin-2-yl)oxy)naphthalen-1-yl)amino)butanenitrile] | 48
17 | Cc1ccc2c(NCCC(F)(F)F)cccc2c1Oc1ncccc1-c1ccnc(N[C@H]2CCCNC2)n1 [Example 348, (S)-4-(2-((2-Methyl-5-((3,3,3-trifluoropropyl)amino)naphthalen-1-yl)oxy)pyridin-3-yl)-N-(piperidin-3-yl)pyrimidin-2-amine] | 79
18 | Cc1ccc2c(NCC(C)C)cccc2c1Oc1ncccc1-c1ccnc(N[C@H]2CCCNC2)n1 [Example 349, (S)-4-(2-((5-(Isobutylamino)-2-methylnaphthalen-1-yl)oxy)pyridin-3-yl)-N-(piperidin-3-yl)pyrimidin-2-amine] | 432
19 | Cc1ccc2c(NS(=O)(=O)CC(C)(C)C)c(F)ccc2c1Oc1ncccc1-c1ccnc(N[C@H]2CCCNC2)n1 [Example 350, (S)—N-(2-Fluoro-6-methyl-5-((3-(2-(piperidin-3-ylamino)pyrimidin-4-yl)pyridin-2-yl)oxy)naphthalen-1-yl)-2,2-dimethylpropane-1-sulfonamide] | 37.4
20 | Cc1ccc2c(-c3ccccn3)cccc2c1Oc1ncccc1-c1ccnc(N[C@H]2CCCNC2)n1 [Example 353, (S)-4-(2-((2-Methyl-5-(pyridin-2-yl)naphthalen-1-yl)oxy)pyridin-3-yl)-N-(piperidin-3-yl)pyrimidin-2-amine] | 133
21 | Cc1cn(C)nc1Nc1cccc2c(Oc3ncccc3-c3ccnc(N[C@H]4CCCNC4)n3)c(C)ccc12 [Example 358, (S)-4-(2-((5-((1,4-Dimethyl-1H-pyrazol-3-yl)amino)-2-methylnaphthalen-1-yl)oxy)pyridin-3-yl)-N-(piperidin-3-yl)pyrimidin-2-amine] | 266
22 | Cc1ccc2c(Nc3ccn(C)n3)c(F)ccc2c1Oc1ncccc1-c1ccnc(N[C@H]2CCCNC2)n1 [Example 359, (S)-4-(2-((6-Fluoro-2-methyl-5-((1-methyl-1H-pyrazol-3-yl)amino)naphthalen-1-yl)oxy)pyridin-3-yl)-N-(piperidin-3-yl)pyrimidin-2-amine] | 438
23 | Cc1ccc2c(Nc3nn(C)cc3F)cccc2c1Oc1ncccc1-c1ccnc(N[C@H]2CCCNC2)n1 [Example 360, (S)-4-(2-((5-((4-Fluoro-1-methyl-1H-pyrazol-3-yl)amino)-2-methylnaphthalen-1-yl)oxy)pyridin-3-yl)-N-(piperidin-3-yl)pyrimidin-2-amine] | 455
24 | CCCS(=O)(=O)Nc1cccc2c(Oc3ncccc3-c3ccnc(N[C@@H]4CNC[C@H](C)C4)n3)c(C)ccc12 [Example 361, N-(6-Methyl-5-((3-(2-(((3S,5R)-5-methylpiperidin-3-yl)amino)pyrimidin-4-yl)pyridin-2-yl)oxy)naphthalen-1-yl)propane-1-sulfonamide] | 85.1
25 | Cc1ccc2c(NS(=O)(=O)CC(F)(F)F)c(F)ccc2c1Oc1ncccc1-c1ccnc(N[C@H]2CCCNC2)n1 [Example 362, (S)-2,2,2-Trifluoro-N-(2-fluoro-6-methyl-5-((3-(2-(piperidin-3-ylamino)pyrimidin-4-yl)pyridin-2-yl)oxy)naphthalen-1-yl)ethanesulfonamide] | 23.4
26 | Cc1ccc2c(NC(=O)C(C)(C)C#N)cccc2c1Oc1ncccc1-c1ccnc(N[C@H]2CCCNC2)n1 [Example 363, (S)-2-Cyano-2-methyl-N-(6-methyl-5-((3-(2-(piperidin-3-ylamino)pyrimidin-4-yl)pyridin-2-yl)oxy)naphthalen-1-yl)propanamide] | 408
27 | Cc1ccc2c(NC(=O)CC3CCCCC3)c(F)ccc2c1Oc1ncccc1-c1ccnc(N[C@H]2CCCNC2)n1 [Example 364, (S)-2-Cyclohexyl-N-(2-fluoro-6-methyl-5-((3-(2-(piperidin-3-ylamino)pyrimidin-4-yl)pyridin-2-yl)oxy)naphthalen-1-yl)acetamide] | 216
28 | Cc1ccc2c(NC(=O)C3(C)CC3)c(F)ccc2c1Oc1ncccc1-c1ccnc(N[C@H]2CCCNC2)n1 [Example 365, (S)—N-(2-Fluoro-6-methyl-5-((3-(2-(piperidin-3-ylamino)pyrimidin-4-yl)pyridin-2-yl)oxy)naphthalen-1-yl)-1-methylcyclopropanecarboxamide] | 438
29 | Cc1ccc2c(NC(=O)CC3CCCCC3)c(F)ccc2c1Oc1ncccc1-c1ccnc(N[C@@H]2CNC[C@H](C)C2)n1 [Example 366, 2-Cyclohexyl-N-(2-fluoro-6-methyl-5-((3-(2-(((3S,5R)-5-methylpiperidin-3-yl)amino)pyrimidin-4-yl)pyridin-2-yl)oxy)naphthalen-1-yl)acetamide] | 101
